We go through five compounds from US7268152B2, “Glucocorticoid mimetics, methods of making them, pharmaceutical compositions, and uses thereof” (Boehringer Ingelheim Pharmaceuticals, Inc., priority 2002, dated 2007).

In this experiment the target is T1, human glucocorticoid receptor (GR) complex (Homo sapiens, UniProt P04150).
T1 construct: made in house; host or cells: insect expression system (baculovirus lysate)
T1 sequence (P04150 1-777): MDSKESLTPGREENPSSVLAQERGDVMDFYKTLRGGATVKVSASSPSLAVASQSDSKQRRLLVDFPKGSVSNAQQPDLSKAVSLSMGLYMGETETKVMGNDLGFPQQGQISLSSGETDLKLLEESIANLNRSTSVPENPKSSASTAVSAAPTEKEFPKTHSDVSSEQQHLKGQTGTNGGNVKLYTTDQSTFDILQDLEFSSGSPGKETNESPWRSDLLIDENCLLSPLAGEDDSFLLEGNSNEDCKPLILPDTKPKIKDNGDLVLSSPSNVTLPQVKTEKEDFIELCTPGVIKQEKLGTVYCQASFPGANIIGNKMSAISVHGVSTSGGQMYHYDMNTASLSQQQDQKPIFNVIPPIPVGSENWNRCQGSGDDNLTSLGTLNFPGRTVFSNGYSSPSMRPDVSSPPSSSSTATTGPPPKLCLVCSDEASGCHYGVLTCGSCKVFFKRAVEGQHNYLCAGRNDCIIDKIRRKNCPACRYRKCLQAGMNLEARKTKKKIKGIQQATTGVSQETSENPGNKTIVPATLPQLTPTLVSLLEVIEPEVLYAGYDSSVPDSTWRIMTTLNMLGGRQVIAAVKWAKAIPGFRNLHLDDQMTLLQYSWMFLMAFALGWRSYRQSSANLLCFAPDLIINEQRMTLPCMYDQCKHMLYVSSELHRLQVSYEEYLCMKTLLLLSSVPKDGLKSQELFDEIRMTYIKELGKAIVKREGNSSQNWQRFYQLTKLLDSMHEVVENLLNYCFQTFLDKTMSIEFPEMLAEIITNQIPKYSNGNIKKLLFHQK
The experiment is described as follows: Glucocorticoid receptor competitive binding assay (fluorescence polarization). The conditions noted are these: competition with TAMRA-labeled dexamethasone. On the procedure: Compounds of the invention were evaluated for binding to the steroid receptor by a fluorescence polarization competitive binding assay. Detailed descriptions for preparation of recombinant glucocorticoid receptor (GR) complex used in the assay is described in U.S. provisional application No. 60/291,877, filed May 18, 2001, and incorporated herein by reference in its entirety. Preparation of the tetramethyl rhodamine (TAMRA)-labeled dexamethasone probe was accomplished using a standard literature procedure (M. Pons et al., J. Steroid Biochem., 1985, 22, pp. 267-273).
A. Glucocorticoid Receptor Competitive Binding Assay
Step 1. Characterization of the Fluorescent Probe
The wavelengths for maximum excitation and emission of the fluorescent probe should first be measured. An example of such a probe is rhodamine (TAMRA)-labeled dexamethasone.
The affinity of the probe for the steroid receptor was then determined in a titration experiment. The fluorescence polarization value of the probe in assay buffer was measured on an SLM-8100 fluorometer using the excitation and emission maximum values described above. Aliquots of expression vector lysate were added and fluorescence polarization was measured after each addition until no further change in polarization value was observed. Non-linear least squares regression analysis was used to calculate the dissociation constant of the probe from the polarization values obtained for lysate binding to the probe.
Step 2. Screeningfor Inhibitors of Probe Binding
This assay uses fluorescence polarization (FP) to quantitate the ability of test compounds to compete with tetramethyl rhodamine (TAMRA)-labeled dexamethasone for binding to a human glucocorticoid receptor (GR) complex prepared from an insect expression system. The assay buffer was: 10 mM TES, 50 mM KCl, 20 mM Na2MoO4.2H2O, 1.5 mM EDTA, 0.04% w/v CHAPS, 10% v/v glycerol, 1 mM dithiothreitol, pH 7.4. Test compounds were dissolved to 1 mM in neat DMSO and then further diluted to 10×assay concentration in assay buffer supplemented with 10% v/v DMSO. Test compounds were serially diluted at 10×assay concentrations in 10% DMSO-containing buffer in 96-well polypropylene plates. Binding reaction mixtures were prepared in 96-well black Dynex microtiter plates by sequential addition of the following assay components to each well: […] of 10×test compound solution, 85 μL of GR-containing baculovirus lysate diluted 1:170 in assay buffer, and 50 μL of 15 nM TAMRA-labeled dexamethasone. Positive controls were reaction mixtures containing no test compound; negative controls (blanks) were reaction mixtures containing 0.7 μM to 2 μM dexamethasone. The binding reactions were incubated for 1 hour at room temperature and then read for fluorescence polarization in the LJL Analyst set to 550 nm excitation and 580 nm emission, with the Rhodamine 561 dichroic mirror installed. IC50 values were determined by iterative non-linear curve fitting of the FP signal data to a 4-parameter logistic equation.
A general note: Fluorescence polarisation rises when a labelled molecule tumbles more slowly, as on binding a larger partner.

As usually defined, the IC50 is the concentration needed to halve the response being measured. Low values mean greater potency in that assay, high ones weaker potency in that assay. In the case of `COc1ccc(F)cc1C(C)(C)CC(O)(Cc1ccc(C)c2ccccc12)C(F)(F)F` (centres unmarked) [1,1,1-Trifluoro-4-(5-fluoro-2-methoxyphenyl)-4-methyl-2-(4-methylnaphthalen-1-ylmethyl)pentan-2-ol], the half-maximal inhibitory concentration (IC50) was ≤ 100 nM.

`CC(C)(CC(O)(Cc1cc(F)cc(F)c1)C(F)(F)F)c1cc(F)ccc1O` (centres unmarked) [2-[3-(3,5-Difluorobenzyl)-4,4,4-trifluoro-3-hydroxy-1,1-dimethylbutyl]-4-fluorophenol]: the IC50 is ≤ 100 nM.

Take `COc1ccc(F)cc1C(C)(C)CC(O)(Cc1cccc(Cl)c1Cl)C(F)(F)F` (centres unmarked) [2-(2,3-Dichlorobenzyl)-1,1,1-trifluoro-4-(5-fluoro-2-methoxyphenyl)-4-methylpentan-2-ol]: the IC50 is ≤ 100 nM.

Turning to `COc1ccc(F)cc1C(C)(C)CC(O)(Cc1cc(F)cc(F)c1)C(F)(F)F` (centres unmarked) [2-(3,5-Difluorobenzyl)-1,1,1-trifluoro-4-(5-fluoro-2-methoxyphenyl)-4-methylpentan-2-ol], the IC50 is ≤ 100 nM.

For the compound `Cc1ccccc1CC(O)(CC(C)(C)c1cc(F)ccc1O)C(F)(F)F` (centres unmarked) [4-Fluoro-2-[4,4,4-trifluoro-3-hydroxy-1,1-dimethyl-3-(2-methylbenzyl)butyl]phenol], the IC50 is ≤ 100 nM.
